The text below walks through data of patent publication US9567636B2, “Use of HLA-B*1301 allele” (Shandong Provincial Institute of Dermatology and Venereology, priority 2012, dated 2017).

The test system of data set [1] is HLA-B*1301 allele. Particulars: human, in vivo. Here is the method: To further verify the correlation of HLA-B*1301 allele, the 454 sequencing platform (Genome Sequencer FLX system developed by Roche 454 Life Sciences) was employed to conduct HLA sorting on another 37 DHS patients in the case samples and another 201 non-DHS patients in the clinical control samples (randomizedly selected from a total of 1089 validation controls). Wherein, PCR amplification was conducted on genomic DNA isolated from the peripheral blood of the samples for the HLA-B*1301 allele using primer pair 1 and primer pair 2, respectively. The primer pair 1 consists of the single-stranded DNA as set forth in SEQ ID No.1 and SEQ ID No.2; and the primer pair 2 consists of the single-stranded DNA as set forth in SEQ ID No.3 and SEQ ID No.4.

Data set [2] relates to HLA-B*1301 allele. The settings on record: both, human, in vivo.
Excerpt: The samples were peripheral blood taken from human, including case samples, clinical control samples and healthy control samples.
76 Chinese DHS patients (39 for the discovery-phase study, and 37 for the validation-phase study) were included in the study. […] The male-to-female ratio in the patients, aged 38 years old in average, was 1.6:1. […] The diagnosis of DHS was based on the medical history, clinical manifestations and laboratory examinations of the patients.
The clinical control samples of the study included 1034 non-DHS patients (833 for the discovery phase, and 201 for the validation phase).
Genotyping was performed on 39 DHS patients in the case samples and 833 non-DHS patients in the clinical control samples using Illumina-660 chip (Illumina Human 660W-Quad beadchip). A total of 430,276 SNPs from the 39 DHS patients and 833 non-DHS patients were used in data analysis in the discovery phase of Genome-Wide Scan. […]
Data set [3] deals with HLA-B*1301 allele. The settings on record: human, in vivo. The source says:
The 454 sequencing platform (Genome Sequencer FLX system developed by Roche 454 Life Sciences) was employed to conduct HLA sorting on 76 DHS patients in the case samples and 1034 non-DHS patients in the clinical control samples, and the sorting results are shown in Table 1.
The HLA-B*1301 heterozygous carriers were at a risk of DHS of ORhet=61×886/10×144=37.53 (confidence level, 0.95; confidence interval (18.80, 74.94)); the HLA-B*1301 homozygous carriers were at a risk of DHS of ORhom=5×886/10×4=110.75 (confidence level, 0.95; confidence interval (25.85, 474.54)).
A recent review regarding the Asian population deduced that the prevalence rate of DHS was 1.4% (Lorenz, Wozel et al. 2012). Based on this prevalence rate, the positive predictive value was 7.9%, the negative predictive value was 99.8%, the positive likelihood ratio was 6.07, and the negative likelihood ratio was 0.1536, upon calculation. According to the positive likelihood ratio of 6.07, the risk of DHS in individuals with the HLA-B*1301 will be raised to 7.9%; and according to the negative likelihood ratio of 0.1536, the incidence of DHS in individuals […] will be decreased from 1.4% to 0.2%.
This is another data set of the same source.

The conditions of data set [4]: both, human, in vivo. The source says: 76 Chinese DHS patients (39 for the discovery-phase study, and 37 for the validation-phase study) were included in the study. […] The diagnosis of DHS was based on the medical history, clinical manifestations and laboratory examinations of the patients.

Where two headings read alike, the source gives them in different places.

On to `Nc1ccc(S(=O)(=O)c2ccc(N)cc2)cc1` [DDS, 4,4′-diamino diphenyl sulfone], for which the “OR of DHS for HLA-B*1301” value in the data set on HLA-B*1301 allele [1] turned out to be 23.54. Also, the “OR of DHS for HLA-B*1301” value in the data set with HLA-B*1301 allele [2] is 21.67. Besides, in the data set on HLA-B*1301 allele [3], the “HLA-B*1301 allele carried by DHS patients” value is given as 86.8%, the “HLA-B*1301 allele carried by non-DHS patients” value was 14.3% and the “risk of DHS in individuals with the HLA-B*1301” value is 7.9%. For the same compound, in data set [4], the “patients abnormally increased in the level of serum bilirubin” value stood at 35 patients, the “patients decreased in the level of hemoglobin” value is on record as 37 patients, the “patients significantly increased in the level of alanine transaminase” value is 58 patients and the “patients significantly increased in the level of aspartate aminotransferase” value worked out at 49 patients. In data set [4], the “skin lesion: exfoliative dermatitis” value is recorded as 38.5%, the “skin lesion: maculopapule” value worked out at 57.7%, the “skin lesion: scarlatiniform erythema” value was determined as 7.7% and the “system involvement: abnormal liver function” value is 74.4%. For the same compound, in data set [4], the “system involvement: fever” value worked out at 83.1% and the “system involvement: swollen lymph glands” value is recorded as 34.6%. The “skin lesion: oral erosion” value in data set [4] (po) turned out to be 1.3%.
